The values that follow come from patent publication US5444042A, “Method of treatment of neurodegeneration with calpain inhibitors” (Cortex Pharmaceuticals, priority 1994, dated 1995).

pIC50, pKi: −log10 of the molar value. Where a SMILES comes first, the peptide text is derived from it.

One data set relates to Calpain. The data set can be described thus: Kapp/[I] of other irreversible Calpain Inhibitors. The data set is classed as biochemical. The text has this:
The kinetic constants of other irreversible Calpain Inhibitors include the following with Kapp /[I] in parentheses: E-64 (7500), E64-d (23000) and Z-leu-leu-tyr-CHN2 (230000). E-64 is commercially available from Sigma Chemical Co., and is shown here to be a poor inhibitor of Calpain.

In data set [1] the test system is Calpain in crude brain extracts. The data set can be described thus: Ca2+-stimulated spectrin proteolysis in crude brain extracts (Example 2). Format: biochemical. The following applies: 100 μM. Put shortly:
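Brain tissue was homogenized in 10 mM Tris pH 7.4, 0.32 M sucrose, 1 mM EGTA and 1 mM DTT, and nuclei and debris were removed. Calpain activity was scored as Ca^2+-stimulated proteolysis of endogenous spectrin.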

In a further data set the test system is Calpain within platelets. The data set can be described thus: Platelet membrane permeation assay, spectrin proteolysis (Examples 4A, 4B). Format: cell-based, rat. The note with it: for inhibition of Calpain within platelets: 100 μM, A23187 1 μM; for pIC50: concentration at which 50% of the Calpain activation present in controls occurred. Put shortly: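 Rat (Sprague-Dawley) platelets at 10^7 cells/ml in HEPES buffer pH 7.4, preincubated 5 min with inhibitor, then 5 min with 1 μM A23187 to activate calpain. Spectrin proteolysis assessed by SDS-PAGE and anti-spectrin immunoblot, quantified by densitometry.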

Data set [2] has as its system Calpain II. The experiment in a line: Kapp/[I] progress curve method, Calpain II (Table 1C). The data set is classed as biochemical. More on the design: unit not given here. The note with it: Rabbit Calpain II, Suc-leu-tyr-amidomethylcoumarin. The procedure:
(§1) The Halo-Ketone Peptides, like the substituted isocoumarins, are irreversible inhibitors of Calpain. We determined the Kapp /[I] values for various members of this class of compounds against Calpains I and II. For comparison, we also determined these values against the additional thiol proteases Papain and Cathepsin B for at least one Halo-Ketone Peptide.
(§2) We assayed Calpain I and II using Suc-leu-tyr-amidomethylcoumarin. Papain was assayed using benzoyl-arg-4-nitroanilide, and Cathepsin B (bovine) was assayed using CBZ-lys-4-nitrophenyl ester. We followed the progress curve method of Tian and Tsou, Biochemistry, 21:1028-1032 (1982), the disclosure of which is hereby incorporated by reference, to derive kinetic data. Briefly, this method makes use of the equation: [formula] where [P.infin. ] represents the concentration of product formed at a time approaching infinity, A is the Kapp in the presence of substrate (S), K is the Michaelis constant and [Y] is the concentration of the inhibitor. Since [S] and [Y] are known and V and K can be determined, Kapp can be readily determined.

The target in data set [3] is Calpain I (Rattus norvegicus, UniProt P97571). The experiment in a line: Kapp/[I] progress curve method, rat Calpain I (Table 1C). Format: biochemical. The note with it: Suc-leu-tyr-amidomethylcoumarin. The procedure:
as §1, §2

Data set [4] has as its target T1, Calpain I from human erythrocytes (Homo sapiens, UniProt P07384).
T1 construct: Calpain I from human erythrocytes and calpain II from rabbit were assayed using Suc-Leu-Tyr-AMC; from tissue; host or cells: human erythrocytes
T1 sequence (P07384 1-714): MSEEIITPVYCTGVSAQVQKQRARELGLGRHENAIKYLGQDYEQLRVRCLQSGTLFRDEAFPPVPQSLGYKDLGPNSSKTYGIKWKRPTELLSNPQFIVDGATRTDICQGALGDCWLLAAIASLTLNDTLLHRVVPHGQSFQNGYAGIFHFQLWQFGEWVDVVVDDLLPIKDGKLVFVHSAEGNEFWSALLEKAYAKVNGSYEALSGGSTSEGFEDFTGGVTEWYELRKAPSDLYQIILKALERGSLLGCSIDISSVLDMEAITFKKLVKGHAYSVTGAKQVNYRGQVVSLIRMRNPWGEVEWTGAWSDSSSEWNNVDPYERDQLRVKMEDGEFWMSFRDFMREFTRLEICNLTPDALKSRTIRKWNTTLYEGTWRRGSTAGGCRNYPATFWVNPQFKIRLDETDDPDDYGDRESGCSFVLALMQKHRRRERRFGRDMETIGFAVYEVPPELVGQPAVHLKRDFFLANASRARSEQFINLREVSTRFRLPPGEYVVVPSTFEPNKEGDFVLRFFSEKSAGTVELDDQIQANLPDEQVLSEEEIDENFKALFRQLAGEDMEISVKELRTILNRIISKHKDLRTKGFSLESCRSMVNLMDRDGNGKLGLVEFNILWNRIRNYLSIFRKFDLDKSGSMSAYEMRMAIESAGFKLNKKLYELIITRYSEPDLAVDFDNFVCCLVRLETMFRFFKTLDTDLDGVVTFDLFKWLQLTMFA
T1 sequence (P04632 1-268 partner): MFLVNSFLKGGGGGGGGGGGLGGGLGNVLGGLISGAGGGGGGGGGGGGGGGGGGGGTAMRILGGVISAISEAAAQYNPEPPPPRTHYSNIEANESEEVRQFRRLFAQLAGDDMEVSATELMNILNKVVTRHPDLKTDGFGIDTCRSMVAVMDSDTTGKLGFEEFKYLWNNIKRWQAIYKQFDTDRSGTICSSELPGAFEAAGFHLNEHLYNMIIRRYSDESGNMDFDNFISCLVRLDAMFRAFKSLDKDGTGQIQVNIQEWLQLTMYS
The data set can be described thus: Calpain I Ki (Table 1B(i)). Format: biochemical. The note with it: Suc-Leu-Tyr-amidomethylcoumarin, HEPES pH 7.2. On the procedure: The Peptide Keto-Compounds are reversible inhibitors of Calpains and other thiol proteases. […] Cathepsin B from bovine spleen was assayed using Z-Lys-4-nitrophenylphosphate as substrate.
The Ki value for the inhibition of Calpains and cathepsin B by several Peptide Keto-Compounds are shown in μM (micromolar). The values for leupeptin, which is commercially available from Calbiochem of La Jolla, Calif., are shown for comparison.

Another data set deals with hippocampal slices. The experiment in a line: Hippocampal slice EPSP recovery from severe hypoxia (FIG. 5). The following applies: one hour incubation. The data set is classed as cell-based, rat. The procedure:
These studies were performed in a manner similar to that of Example 7B, except using a hypoxic environment in place of the anoxia of Example 7B. […] The control slices experienced little or no recovery.

The next data set has as its target Chym (Bos taurus, UniProt P00766). The data set can be described thus: Chym KI (Table 1B(ii)). The data set is classed as biochemical. The text has this:
(§3) We tested the ability of an additional group of Peptide Keto-Compounds to inhibit several proteases in order to evaluate their specificity for Calpain.

For data set [5], the target named is Calpain II. The data set can be described thus: Calpain II KI (Table 1B(ii)). Format: biochemical.
Text: as §3

The target in a further data set is Cathepsin B (Bos taurus, UniProt P07688). The experiment in a line: Cathepsin B KI (Table 1B(ii)). The data set is classed as biochemical. The following applies: read-out: KI CathB.
Text: as §3

Another data set is described as follows: Stability in plasma. The data set is classed as in vitro ADME. The note with it: unit assumed. From the text: (§4) We determined the haft-life of several Peptide Keto-Compounds in both plasma and liver homogenates.
A further data set addresses PP Elastase (Sus scrofa, UniProt P00772). The data set can be described thus: PP Elastase KI (Table 1B(ii)). The data set is classed as biochemical.
Text: as §3

For data set [6], the target named is T2, Calpain I (Homo sapiens, UniProt P07384).
T2 sequence (P07384 1-714): T1 sequence (P07384 1-714)
T2 sequence (P04632 1-268 partner): T1 sequence (P04632 1-268 partner)
The experiment in a line: Calpain I KI (Table 1B(ii)). Format: biochemical. The following applies: for pKi: Table 1B(ii).
Text: as §3

Data set [7] deals with rats with middle cerebral artery occlusion. The experiment in a line: MCA occlusion model (Example 6). Format: in vivo, rat. The following applies: infusion into femoral vein by 24 hr minipump; 24 hours after occlusion (FIG. 2). On the procedure: Male Sprague-Dawley albino rats weighing approximately 250-300 grams were anesthetized with pentobarbital (70 mg/kg, i.p.). The neck region was shaven and a 2 cm incision was made. The superficial fascia was teased away with tissue forceps and blunt tip tissue scissors using a spread method. The right common carotid artery was isolated away from the vagus nerve and tied off with a single suture (3.0 silk). The external carotid was permanently occluded by suturing. The bifurcation of the internal carotid and pterygopalatine arteries was exposed and a single microaneurysm clip was placed on the pterygopalatine. Another microaneurysm clip was placed on the common carotid just proximal to the external/internal bifurcation. A suture was placed loosely around the common carotid and a lumen was made in the vessel with the tip of a 25 g needle. A 40 mm nylon suture was prepared by melting the tip to smooth the pointed end and marked with a dot exactly 17.5 mm from the melted end. […]
Twenty-four hours after occlusion, the brains of these animals were removed and sliced into 2 mm sections. […] The sizes of the infarcted tissue zone ([…]) and impaired zone (area with partial development of red color) were evaluated using quantitative morphometry. […]

Data set [8] can be described thus: Stability in liver homogenates. The data set is classed as in vitro ADME. The following applies: unit assumed.
Text: as §4

PP Elastase, sequence (P00772 27-266): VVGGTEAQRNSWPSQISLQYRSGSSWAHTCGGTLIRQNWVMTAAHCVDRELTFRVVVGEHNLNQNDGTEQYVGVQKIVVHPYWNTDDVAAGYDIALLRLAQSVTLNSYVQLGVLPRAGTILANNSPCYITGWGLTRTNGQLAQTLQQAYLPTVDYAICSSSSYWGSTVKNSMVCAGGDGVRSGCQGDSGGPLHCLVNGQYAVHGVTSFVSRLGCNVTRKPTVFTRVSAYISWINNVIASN
Calpain I (Rattus norvegicus, UniProt P97571), sequence (P97571 whole entry): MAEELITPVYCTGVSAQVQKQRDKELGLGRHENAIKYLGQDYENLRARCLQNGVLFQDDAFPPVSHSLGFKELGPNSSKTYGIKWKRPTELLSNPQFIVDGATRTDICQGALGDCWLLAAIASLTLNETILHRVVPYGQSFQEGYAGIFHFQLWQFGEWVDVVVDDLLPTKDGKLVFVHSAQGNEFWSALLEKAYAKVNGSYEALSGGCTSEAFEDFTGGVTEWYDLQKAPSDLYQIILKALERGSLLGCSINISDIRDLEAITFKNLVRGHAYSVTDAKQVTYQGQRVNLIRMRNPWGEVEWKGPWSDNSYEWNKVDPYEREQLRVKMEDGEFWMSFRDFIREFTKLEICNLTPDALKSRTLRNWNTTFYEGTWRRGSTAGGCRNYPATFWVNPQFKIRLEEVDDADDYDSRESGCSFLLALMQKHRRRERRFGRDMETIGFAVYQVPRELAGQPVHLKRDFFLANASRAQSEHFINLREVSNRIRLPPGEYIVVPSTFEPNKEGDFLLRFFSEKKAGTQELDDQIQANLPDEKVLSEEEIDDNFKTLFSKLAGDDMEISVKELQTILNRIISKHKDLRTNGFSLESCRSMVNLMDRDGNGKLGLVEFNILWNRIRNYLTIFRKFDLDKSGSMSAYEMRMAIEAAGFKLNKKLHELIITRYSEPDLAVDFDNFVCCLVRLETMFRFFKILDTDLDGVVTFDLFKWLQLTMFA
Calpain I (Rattus norvegicus, UniProt P97571), sequence (Q64537 whole entry partner): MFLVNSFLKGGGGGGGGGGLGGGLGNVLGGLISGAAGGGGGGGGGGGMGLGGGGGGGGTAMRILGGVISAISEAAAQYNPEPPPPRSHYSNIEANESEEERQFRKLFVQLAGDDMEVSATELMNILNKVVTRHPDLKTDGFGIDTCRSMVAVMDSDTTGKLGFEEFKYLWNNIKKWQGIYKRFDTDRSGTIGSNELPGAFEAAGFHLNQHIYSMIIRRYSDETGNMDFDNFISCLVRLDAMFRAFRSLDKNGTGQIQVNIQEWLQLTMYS

With `CCOC(=O)[C@H]1O[C@@H]1C(=O)N[C@@H](CC(C)C)C(=O)NCCC(C)C` [Example E64-d, Loxastatin], in the data set on Calpain, the “Kapp/[I] Calpain” value stood at 23000.
As for `CC(C)C[C@H](NC(=O)CNC(=O)OCc1ccccc1)C(=O)N[C@@H](Cc1ccccc1)C(=O)CCl` [Z-Gly-Leu-Phe-CH2 Cl, reference compound] (HELM PEPTIDE1{[O=C(OCc1ccccc1)[*:2]].G.L.F.[ClC[*:1]]}$$$$V2.0), the “inhibition of spectrin proteolysis in crude brain extracts” value in data set [1] is recorded as “significant inhibition”. Moreover, in the data set on Calpain within platelets, the “inhibition of Calpain within platelets” value was “significant inhibition”. Besides, the “Kapp/[I] CII” value with Calpain II [2] came out at 946000. For the same molecule, the “Kapp/[I] CI” value at Calpain I [3] was found to be 284000.
On to `COC(=O)C(=O)C(C)NC(=O)C(C)NC(=O)C(C)NC(=O)OCc1ccccc1` (stereo not drawn) [Z-Ala-Ala-Ala-CO2 Me], for which the pKi (usually −log10 of the Ki, conventionally taken in molar units) in [4] is 3.70.
For `CC(C)C[C@H](NC(=O)OCc1ccccc1)C(=O)N[C@@H](CC(C)C)C(=O)N[C@@H](Cc1ccc(O)cc1)C(=O)C=[N+]=[N-]` [Z-leu-leu-tyr-CHN2] (HELM PEPTIDE1{[O=C(OCc1ccccc1)[*:2]].L.L.Y.[[N-]=[N+]=C[*:1]]}$$$$V2.0), in the data set on Calpain, the “Kapp/[I] Calpain” value is given as 230000.
`CC(=O)N[C@@H](CC(C)C)C(=O)N[C@@H](Cc1ccccc1)C(=O)CCl` [Ac-Leu-Phe-CH2 Cl] (HELM PEPTIDE1{[ac].L.F.[ClC[*:1]]}$$$$V2.0): the “inhibition of spectrin proteolysis in crude brain extracts” value in [1] is “significant inhibition”. The “inhibition of Calpain within platelets” value in the data set with Calpain within platelets is “significant inhibition”. The “Kapp/[I] CII” value in the data set on Calpain II [2] is listed as 33400. At Calpain I [3], the “Kapp/[I] CI” value was 25900.
In the case of `CC(C)C[C@H](NC(=O)[C@H]1O[C@@H]1C(=O)O)C(=O)NCCCCN=C(N)N` [Example E-64, E-64, reference compound], the “effect on intracellular (platelet) Calpain” value with Calpain within platelets (concentration not given) is on record as “little effect”. Also, the “Kapp/[I] Calpain” value in the data set on Calpain was 7500.
Consider `CCNC(=O)C(=O)[C@H](Cc1ccccc1)NC(=O)[C@H](CC(C)C)NC(=O)OCc1ccccc1` [Z-Leu-Phe-CONHEt, Z-Leu-Phe-CONH-Et], for which the pIC50 (in general, the IC50 on a negative log10 scale, so that one unit is a factor of ten) in the data set with Calpain within platelets was 5.77. Moreover, the “percent recovery of EPSP from severe hypoxia (FIG. 5)” value with hippocampal slices is given as about 100%. For the same molecule, the pKi on Chym was 4.14; at Calpain II [5], 6.49; at Cathepsin B, 5.22; at PP Elastase, under 3.82; on Calpain I [6], 5.15. The same molecule returned a t1/2 plasma in the data set “Stability in plasma” of over 1 h. Also, in data set [7], the “size of infarcted area” value is listed as “reduction in the size of the infarcted area”. In [8], this molecule had a t1/2 liver of over 1 h.
With `CCNC(=O)C(=O)[C@H](CC)NC(=O)[C@H](CC(C)C)NC(=O)OCc1ccccc1` [Z-Leu-Abu-CONHEt, Z-Leu-Abu-CONH-Et], in the data set with Calpain within platelets, the pIC50 is 5.82. In addition, the pKi at Chym was under 3.82; at Calpain II [5], 6.64; on Cathepsin B, 5.62; on PP Elastase, 4.19; on Calpain I [6], 6.30. Besides, in the data set “Stability in plasma”, the t1/2 plasma is over 1 h. Moreover, at Calpain I [6] (ratio of KI values), the “better inhibitor of calpain I than Z-Leu-Phe-CONH-Et” value is given as 14 fold. Further, in [7], the “size of infarcted area” value is “reduction in the size of the infarcted area”. The molecule further showed a t1/2 liver in data set [8] of over 1 h.
